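Growth conditions: 96-well plates. Treatment: test compound, 48 hours, 5 concentrations. Analysis: linear interpolation between bracketing concentrations; unreached endpoints set to highest concentration. GI50: concentration for 50% inhibition of growth.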 Calls of active or inactive are those of the source. Rule as the data show it: active = GI50 up to about 1.1 µM and inactive = higher.
How the values were obtained:
Test in all cases: inhibition of tumour cell growth, NCI panel, 48 h
[1] = tested on: SK-MEL-5
[2] = tested on: ACHN
[3] = tested on: NCI-H460
[4] = tested on: SF-539
[5] = tested on: IGROV-1
[6] = tested on: K562
[7] = tested on: HCT-116
[8] = tested on: NCI-H226
[9] = tested on: MDA-MB-231
[10] = tested on: HL-60
[11] = tested on: CAKI-1
[12] = tested on: SF-268
[13] = tested on: NCI-H522
[14] = tested on: SNB-19
[15] = tested on: Hs-578T
[16] = tested on: OVCAR-3
[17] = tested on: HOP-92
[18] = tested on: Malme-3M
[19] = tested on: MDA-N
[20] = tested on: SK-MEL-2

Measured: GI50

Cc1ccc2c(=O)c3c(O)c4c(cc3n(C)c2c1)OC(C)(C)C=C4
inactive: [1] > 10 µM | [2] > 10 µM | [3] > 10 µM | [4] > 10 µM | [5] > 10 µM | [6] > 10 µM | [7] > 10 µM | [8] > 10 µM | [9] > 10 µM | [10] > 10 µM | [11] > 10 µM | [12] > 10 µM | [13] > 10 µM | [14] > 10 µM | [15] > 10 µM | [16] > 10 µM | [17] > 10 µM | [18] > 10 µM | [19] > 10 µM | [20] > 10 µM

CC(C)[C@H](NC(=O)OCc1ccccc1)C(=O)N[C@H](/C=C/C(=O)OC(C)(C)C)CO
inactive: [1] > 100 µM | [2] > 100 µM | [3] > 100 µM | [4] > 100 µM | [5] > 100 µM | [7] 71.9 µM | [8] > 100 µM | [9] > 100 µM | [10] 57.1 µM | [11] > 100 µM | [12] > 100 µM | [13] > 100 µM | [14] > 100 µM | [15] > 100 µM | [16] > 100 µM | [17] > 100 µM | [18] > 100 µM | [19] > 100 µM | [20] > 100 µM

CC(=O)NC1C(OCc2ccccc2)OC(CO)C(O)C1OCC(=O)N[C@@H](C)C(=O)N[C@H](CCC(=O)NCCCNc1c2ccccc2nc2cccc([N+](=O)[O-])c12)C(N)=O (stereo partly specified)
active: [1] 0.0148 µM | [2] 0.0182 µM | [3] 0.0101 µM | [4] 0.0298 µM | [5] 0.0506 µM | [6] 0.0229 µM | [7] < 0.0127 µM | [8] 0.0586 µM | [9] 0.05 µM | [10] 0.0559 µM | [11] 0.0338 µM | [13] < 0.0111 µM | [14] 0.16 µM | [15] 0.156 µM | [16] 0.0678 µM | [17] 0.0295 µM | [18] 0.0292 µM | [19] 0.023 µM | [20] 0.0404 µM

C=CCOc1ccc(C(=N/NC(=O)c2ccccc2)/N=N/c2ccccc2)cc1OC
inactive: [1] 50.5 µM | [2] > 100 µM | [3] 40.6 µM | [4] > 100 µM | [5] > 100 µM | [7] 67.9 µM | [8] 60.5 µM | [9] 70.6 µM | [10] 37.8 µM | [11] > 100 µM | [12] > 100 µM | [13] 93.5 µM | [14] > 100 µM | [15] 70.8 µM | [16] 86.9 µM | [17] 30.1 µM | [18] > 100 µM | [19] > 100 µM | [20] > 100 µM

Cc1ccc(Cc2n[nH]c(=O)n2/N=C\CC/C=N\n2c(Cc3ccc(C)cc3)n[nH]c2=O)cc1
inactive: [1] 42.2 µM | [2] 47.1 µM | [4] 3.99 µM | [5] 33.3 µM | [6] 96.8 µM | [7] 33.1 µM | [8] 24.4 µM | [9] 31.3 µM | [10] 14.6 µM | [11] > 100 µM | [12] 18 µM | [13] > 100 µM | [14] 39.6 µM | [15] 15.5 µM | [16] > 100 µM | [17] 25.1 µM | [18] 33.2 µM | [19] 37.1 µM | [20] 28 µM

C=C1C(=O)[C@]23[C@H](O)[C@H]1CC[C@H]2[C@@]12CO[C@@]3(O)C[C@@H]1C(C)(C)CC[C@@H]2O [MEGATHYRIN A]
inactive: [1] 13 µM | [2] 4.84 µM | [4] 6.79 µM | [5] 7.14 µM | [6] 7.41 µM | [7] 5.21 µM | [8] 8.22 µM | [9] 5.66 µM | [10] 8.45 µM | [11] 8.47 µM | [12] 6.34 µM | [13] 3.63 µM | [14] 21.2 µM | [15] 7.29 µM | [16] 11.5 µM | [17] > 25 µM | [18] 6.71 µM | [19] 7.69 µM

CC(C)c1ccc(/C=C2\N=C(c3ccc([N+](=O)[O-])cc3)OC2=O)cc1
inactive: [1] > 100 µM | [2] > 100 µM | [3] > 100 µM | [4] > 100 µM | [5] > 100 µM | [6] > 100 µM | [7] > 100 µM | [8] > 100 µM | [9] > 100 µM | [10] > 100 µM | [11] > 100 µM | [12] > 100 µM | [13] > 100 µM | [14] > 100 µM | [15] > 100 µM | [16] > 100 µM | [17] > 100 µM | [18] 60.3 µM | [19] > 100 µM | [20] > 100 µM

O=C1c2ccccc2-c2cc([N+](=O)[O-])c([N+](=O)[O-])cc21
inactive: [1] 1.87 µM | [2] 1.68 µM | [3] 1.51 µM | [5] 1.49 µM | [6] 2.16 µM | [7] 1.94 µM | [8] 4.21 µM | [9] 1.8 µM | [11] 2.47 µM | [12] 2.18 µM | [14] 1.71 µM | [15] 3.78 µM | [17] 1.72 µM | [18] 1.91 µM | [19] 2.35 µM | [20] 1.87 µM
active: [4] 0.485 µM | [10] 0.564 µM | [13] 1.05 µM

O=C(O)/C=C/C(=O)O [FUMARIC ACID]
inactive: [1] > 100 µM | [2] > 100 µM | [3] > 100 µM | [4] > 100 µM | [5] > 100 µM | [6] > 100 µM | [7] > 100 µM | [8] > 100 µM | [9] > 100 µM | [10] > 100 µM | [11] > 100 µM | [12] > 100 µM | [13] > 100 µM | [14] > 100 µM | [15] > 100 µM | [16] > 100 µM | [17] > 100 µM | [18] > 100 µM | [19] > 100 µM | [20] > 100 µM

CC1(CC2=C(C(=O)NCCO[Si](C)(C)C(C)(C)C)C3(OCCO3)C2=O)OCCO1
inactive: [1] > 100 µM | [2] > 100 µM | [3] > 100 µM | [4] > 100 µM | [5] 92.7 µM | [7] 68.5 µM | [8] 71.1 µM | [9] > 100 µM | [10] 29.1 µM | [11] > 100 µM | [12] > 100 µM | [13] 28.4 µM | [14] > 100 µM | [15] > 100 µM | [16] > 100 µM | [17] > 100 µM | [18] 20.4 µM | [19] > 100 µM | [20] > 100 µM

O=C(Nc1nc2ncn(CCOC(=O)c3ccccc3)c2c(=O)[nH]1)c1ccccc1
inactive: [1] 5.51 µM | [2] > 81.1 µM | [3] 8.43 µM | [4] 10.8 µM | [5] 21 µM | [6] 3.05 µM | [7] 4.43 µM | [8] 28.4 µM | [9] 3.79 µM | [10] 2.59 µM | [11] 20.7 µM | [12] 26.2 µM | [13] 2.75 µM | [14] 17.3 µM | [15] 13.1 µM | [16] 29.5 µM | [17] 25.6 µM | [18] 42.3 µM | [19] 2.54 µM | [20] 35.2 µM

COc1cc2c(cc1OCCCC(=O)Nc1cc(C(=O)Nc3cc(C(=O)Nc4cc(C(=O)NCCCN(C)C)n(C)c4)n(C)c3)n(C)c1)N=C[C@@H]1CCCN1C2=O
active: [11] 0.587 µM | [13] 0.224 µM
inactive: [1] 2.24 µM | [2] 1.61 µM | [3] 3.21 µM | [4] 3.42 µM | [5] 3.1 µM | [6] 2.19 µM | [7] 1.69 µM | [8] 5.56 µM | [9] 2.3 µM | [10] 1.16 µM | [12] 1.63 µM | [14] 6.32 µM | [15] 2.94 µM | [16] 2.02 µM | [17] 1.88 µM | [18] 1.82 µM | [19] 1.84 µM | [20] 2.53 µM

CC(C)=CCC[C@@H](C)c1c2ncc[nH]c-2c(C)c(=O)c1O
inactive: [1] 11.7 µM | [2] 12.4 µM | [3] 10.8 µM | [4] 22.2 µM | [5] 26.7 µM | [6] 21.7 µM | [7] 37.1 µM | [8] 16.9 µM | [9] 25.2 µM | [10] 7.03 µM | [11] 35.1 µM | [12] 15.2 µM | [13] 1.76 µM | [14] 25.9 µM | [15] 23.2 µM | [16] 27.4 µM | [17] 23.8 µM | [18] 13.8 µM | [19] 37.8 µM | [20] 18.6 µM

OCC(CN1CCCCC1)(CN1CCCCC1)CN1CCCCC1
inactive: [1] > 100 µM | [2] > 100 µM | [3] > 100 µM | [4] > 100 µM | [5] > 100 µM | [6] > 100 µM | [7] > 100 µM | [8] > 100 µM | [9] > 100 µM | [10] > 100 µM | [11] > 100 µM | [12] > 100 µM | [13] > 100 µM | [14] > 100 µM | [15] > 100 µM | [16] > 100 µM | [17] > 100 µM | [18] > 100 µM | [19] > 100 µM

Reference: ChEMBL document CHEMBL1201862, “PubChem BioAssay data set” (2004)
